These results are taken from US11291655B2, “RAD51 inhibitors” (Cyteir Therapeutics, Inc., priority 2017, dated 2022).

As a reminder, the EC50 is the concentration needed to bring the measured effect to its halfway point.

This test has as its system Daudi Cell Culture. Kind of test: Compound primary screening in Daudi cell culture. Format: cell-based. Conditions: Homo sapiens, 168 h; Daudi cells, 1250 cells per well, reads on Day 7. A digest of the protocol: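 Daudi cells seeded at 1250 cells per well in 130 ul medium at 37° C. and treated with serially diluted compounds added from a media master plate; read on Day 7.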
In turn, `CC(C)OC(=O)Nc1ccc(-c2ncc(-c3ccc(CNC(=O)CCO)cc3S(=O)(=O)NC(C)(C)C)s2)cc1` [Compound O3] came in with an EC50 of more than 10 µM.
The same measure for `CC(C)OC(=O)Nc1ccc(-c2ncc(-c3ccc(NC(=O)CCc4ccccc4)cc3S(=O)(=O)NC(C)(C)C)s2)cc1` [Compound B6]: less than 1 µM; for `CC(=O)Nc1ccc(-c2cnc(-c3ccc(NC(=O)OCC(C)C)cc3)s2)c(S(=O)(=O)NC(C)(C)C)c1` [Compound G1]: less than 5 µM; for `CC(=O)Nc1ccc(-c2ncc(-c3ccc(NC(=S)NC(C)C)cc3S(=O)(=O)NC(C)(C)C)s2)c(S(=O)(=O)NC(C)(C)C)c1` [Compound E21]: less than 5 µM.
With `CNCCCNS(=O)(=O)c1cc(NC(C)=O)ccc1-c1cnc(-c2ccc(NC(=S)NC(C)C)cc2)s1` [Compound D23] the figure was more than 10 µM; with `CC(C)NC(=S)Nc1ccc(-c2ncc(-c3ccc(NC(=O)c4ccccc4)cc3S(=O)(=O)NC(C)(C)C)s2)cc1` [Compound L6], less than 5 µM.
The same measure for `CC(C)OC(=O)Nc1ccc(-c2ncc(-c3ccc(-c4ccn[nH]4)cc3S(=O)(=O)NC(C)(C)C)s2)cc1` [Compound J2]: less than 5 µM.
For `CC(=O)Nc1ccc(-c2cnc(-c3ccc(NC(C)=O)cc3S(=O)(=O)NC(C)(C)C)s2)c(S(=O)(=O)NC(C)(C)C)c1` [Compound E3], the EC50 is less than 10 µM.
`CC(C)OC(=O)Nc1ccc(-c2ncc(-c3ccc(NC(=O)C4CC4)cc3S(=O)(=O)NC(C)(C)C)s2)cc1` [Compound H3] gave a concentration for a half-maximal effect (EC50) of less than 5 µM.
Compound `COCCC(=O)NCc1ccc(-c2cnc(-c3ccc(NC(=O)OC(C)C)cc3)s2)c(S(=O)(=O)NC(C)(C)C)c1` [Compound O2] yielded an EC50 of more than 10 µM.
With `CC(C)OC(=O)Nc1ccc(-c2ncc(-c3ccc(NC(=O)OCc4ccccc4)cc3S(=O)(=O)NC(C)(C)C)s2)cc1` [Compound H5] the figure was less than 1 µM.
With `CC(C)OC(=O)Nc1ccc(-c2ncc(-c3ccc(C(F)(F)F)cc3S(=O)(=O)NC(C)(C)C)s2)cc1` [Compound J6], the EC50 was less than 10 µM.
The same measure for `CC(=O)N(C)c1ccc(-c2cnc(-c3ccc(N)cc3)s2)c(S(=O)(=O)NC(C)(C)C)c1` [Compound E14]: more than 10 µM; for `CC(=O)Nc1ccc(-c2cnc(-c3ccc(NC(=S)NC(C)C)cc3)s2)c(S(=O)(=O)N[C@H]2CC[C@H](O)CC2)c1` [Compound D7]: more than 10 µM; for `CC(C)OC(=O)Nc1ccc(-c2ncc(-c3ccc(O)cc3S(=O)(=O)NC(C)(C)C)s2)cc1` [Compound I2, isopropyl N-[4-[5-[2-(tert-butylsulfamoyl)-4-hydroxy-phenyl]thiazol-2-yl]phenyl]carbamate]: less than 5 µM.
As for `COCCOC(=O)Nc1ccc(-c2cnc(-c3ccc(NC(=O)OC(C)C)cc3)s2)c(S(=O)(=O)NC(C)(C)C)c1` [Compound B2], the EC50 was less than 1 µM.
Compound `CC(C)NC(=S)Nc1ccc(-c2ncc(-c3ccc(NC(=O)NCc4cccc(O)c4)cc3S(=O)(=O)NC(C)(C)C)s2)cc1` [Compound N2] registered a 50% effective concentration (EC50) of less than 10 µM.
`CC(C)OC(=O)Nc1ccc(-c2ncc(-c3cc(NC(=O)OCc4ccccc4)ccc3S(=O)(=O)NC(C)(C)C)s2)cc1` [Compound K2] showed an EC50 of more than 10 µM.
On to `CC(=O)Nc1ccc(-c2cnc(-c3ccc(NC(=S)NC(C)C)cc3)s2)c(S(=O)(=O)N(C)C)c1` [Compound D10], for which the EC50 is less than 1 µM.
The same measure for `CC(C)OC(=O)Nc1ccc(-c2ncc(-c3ccc(NC(C)C(F)(F)F)cc3S(=O)(=O)NC(C)(C)C)s2)cc1` (stereo not drawn) [Compound J3, isopropyl N-[4-[5-[2-(tert-butylsulfamoyl)-4-[(2,2,2-trifluoro-1-methyl-ethyl)amino]phenyl]thiazol-2-yl]phenyl]carbamate]: less than 5 µM; for `CC(C)OC(=O)Nc1ccc(-c2ncc(-c3ccc(NC(=O)OCc4ccccn4)cc3S(=O)(=O)NC(C)(C)C)s2)cc1` [Compound B3]: less than 1 µM.
In the case of `CC(C)OC(=O)Nc1ccc(-c2ncc(-c3ccc(N4CCCC4=O)cc3S(=O)(=O)NC(C)(C)C)s2)cc1F` [Compound J9, isopropyl N-[4-[5-[2-(tert-butylsulfamoyl)-4-(2-oxopyrrolidin-1-yl)phenyl]thiazol-2-yl]-2-fluoro-phenyl]carbamate], the concentration giving a half-maximal response (EC50) is less than 5 µM.
The compound `CC(=O)Nc1ccc(-c2cnc(-c3ccc(NC(=S)NC(C)C)cc3)s2)c(S(=O)(=O)N2CCCCC2)c1` [Compound D14] gave a concentration giving a half-maximal response (EC50) of more than 10 µM.
With `CC(C)OC(=O)Nc1ccc(-c2ncc(-c3ccc(CNC(=O)c4ccccc4)cc3S(=O)(=O)NC(C)(C)C)s2)cc1` [Compound P4] the figure was more than 10 µM.
